# From patent publication US20090136460A1 (VANDERBILT UNIVERSITY, priority 2007, published 2009)
# Where two headings read alike, the source gives them in different places.
# How the values were obtained:
# [1] = test system: eEPC adhesion to MCEC-1 cells; assay: eEPC adhesion to MCEC-1 cells under static conditions; assay type: cell-based, mouse
# HMVEC-c cells = assay: cAMP accumulation in HMVEC-c cells; assay type: cell-based, human
# Text: Primary cultures of human cardiac microvascular endothelial cells (HMVEC-c) were obtained from Cambrex (Walkersville, Md.), and cultured using EGM™-2 MV growth medium (Cambrex). HMVEC-c from passages 2 to 5 were used. Measurement of cAMP accumulation.
# A1 adenosine receptor [2] = target: T1, A1 adenosine receptor (Mus musculus, UniProt Q60612); conditions: cited from earlier work; for Ki: read-out: Affinity or potency at A1, mouse (m)
# T1 sequence (Q60612 1-326): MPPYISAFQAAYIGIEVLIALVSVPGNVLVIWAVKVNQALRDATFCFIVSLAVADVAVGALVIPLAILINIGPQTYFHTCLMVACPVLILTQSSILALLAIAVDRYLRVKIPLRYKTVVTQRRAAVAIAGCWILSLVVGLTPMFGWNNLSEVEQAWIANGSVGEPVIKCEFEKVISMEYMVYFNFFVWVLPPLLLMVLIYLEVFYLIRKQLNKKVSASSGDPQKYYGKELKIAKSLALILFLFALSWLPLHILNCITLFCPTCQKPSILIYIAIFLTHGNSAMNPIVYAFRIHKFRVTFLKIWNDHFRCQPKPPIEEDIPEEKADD
# [3] = test system: eEPC retention in isolated hearts; assay: eEPC retention in isolated mouse hearts (Langendorff perfusion)
# Experimental: Isolated mouse heart model. Six male C57Bl/6 mice (Jackson Laboratory, Bar Harbor, Me.) at age of 6-8 weeks were used. The study was conducted in accordance with the Guide for the Care and Use of Laboratory Animals as adopted and promulgated by the U.S. National Institutes of Health. Hearts were rapidly removed from mice anesthetized with inhalation of isoflurane. The aorta was cannulated and connected to a Langendorff apparatus. […] After a 30 min stabilization period, hearts were perfused with 1.5 mmol/L FITC-conjugated Helix pomatia lectin (Sigma) for 10 min to label endothelial cells of perfused vessels followed by a 10 min washing period with KH buffer. […] After washing with KH buffer for 10 min to remove unbound eEPCs, hearts were dissected, and placed on a microscopic stage. Retention of eEPCs in hearts was analyzed by taking 10 random images of the left ventricle using epifluorescence microscopy (20× objective). Area of EPC-emitted fluorescence was measured using NIH ImageJ software and normalized to the area of vascular endothelium stained with FITC-lectin.
# A1 receptors [4] = target: T2, A1 receptors (Mus musculus, UniProt Q60612); assay: Inhibition of forskolin-stimulated cAMP accumulation in mouse eEPCs; conditions: for Affinity or potency at A1, mouse (m), current study, log / Affinity or potency (Ki, KD, KB, IC50 or EC50) at A1, mouse (m), current study: data from the current study (no reference); for Affinity or potency (Ki, KD, KB, IC50 or EC50) at A1, mouse (m), current study: 95% CI in parentheses
# T2 sequence (Q60612 1-326): T1 sequence (Q60612 1-326)
# A1 receptors [5] = target: T2, A1 receptors; assay: Inhibition of forskolin-induced cAMP accumulation in MCEC-1 cells
# A2A adenosine receptor [6] = target: A2A adenosine receptor (Mus musculus, UniProt Q60613); conditions: [9] Kreckler et al. (2006), transfected HEK 293, radioligand [125I]ZM241385, cited from earlier work
# Sequence of A2A adenosine receptor (Mus musculus, UniProt Q60613) (Q60613 whole entry): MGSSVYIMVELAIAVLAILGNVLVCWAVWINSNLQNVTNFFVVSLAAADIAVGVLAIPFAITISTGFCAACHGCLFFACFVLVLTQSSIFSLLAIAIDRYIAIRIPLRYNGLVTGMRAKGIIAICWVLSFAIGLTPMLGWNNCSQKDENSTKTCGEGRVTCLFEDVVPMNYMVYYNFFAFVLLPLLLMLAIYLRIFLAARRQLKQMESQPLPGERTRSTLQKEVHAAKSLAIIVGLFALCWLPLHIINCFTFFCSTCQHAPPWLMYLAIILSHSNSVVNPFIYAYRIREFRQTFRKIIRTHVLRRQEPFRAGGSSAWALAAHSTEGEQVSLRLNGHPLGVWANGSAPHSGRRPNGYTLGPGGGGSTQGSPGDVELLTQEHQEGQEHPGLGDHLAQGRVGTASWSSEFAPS
# A2B adenosine receptor [7] = target: T3, A2B adenosine receptor (Mus musculus, UniProt Q60614); conditions: [9] Kreckler et al. (2006), transfected HEK 293, radioligand [3H]MRS1754, cited from earlier work
# T3 sequence (Q60614 1-332): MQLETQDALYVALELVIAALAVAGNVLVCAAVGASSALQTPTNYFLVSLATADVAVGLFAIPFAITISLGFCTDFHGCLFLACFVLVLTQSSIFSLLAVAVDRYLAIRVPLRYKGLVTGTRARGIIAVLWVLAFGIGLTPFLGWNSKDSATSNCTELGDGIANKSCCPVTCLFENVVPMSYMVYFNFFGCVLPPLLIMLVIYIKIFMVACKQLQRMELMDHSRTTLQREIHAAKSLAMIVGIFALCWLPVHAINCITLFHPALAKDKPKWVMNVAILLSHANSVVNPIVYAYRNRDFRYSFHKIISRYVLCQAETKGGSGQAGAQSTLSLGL
# eEPCs = assay: cAMP accumulation in mouse eEPCs (forskolin, NECA)
# A2B receptors = target: T4, A2B receptors (Mus musculus, UniProt Q60614); assay: NECA-stimulated cAMP accumulation in MCEC-1 cells
# T4 sequence (Q60614 1-332): T3 sequence (Q60614 1-332)
# A2B adenosine receptor [8] = target: T5, A2B adenosine receptor (Homo sapiens, UniProt P29275); conditions: [14] Feoktistov et al, 2001, transfected HEK 293 or HEL cells, radioligand [3H]ZM241685, cited from earlier work
# T5 sequence (P29275 1-332): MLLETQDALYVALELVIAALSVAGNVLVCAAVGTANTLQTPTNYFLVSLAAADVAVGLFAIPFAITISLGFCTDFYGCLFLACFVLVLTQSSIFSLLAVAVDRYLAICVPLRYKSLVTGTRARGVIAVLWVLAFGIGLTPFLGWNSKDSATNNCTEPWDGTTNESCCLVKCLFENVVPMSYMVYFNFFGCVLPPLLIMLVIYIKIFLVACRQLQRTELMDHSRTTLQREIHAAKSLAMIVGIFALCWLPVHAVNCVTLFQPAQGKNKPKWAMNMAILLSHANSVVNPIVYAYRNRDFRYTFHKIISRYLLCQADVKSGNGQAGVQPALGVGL
# A2A adenosine receptor [9] = target: A2A adenosine receptor (Homo sapiens, UniProt P29274); conditions: [14] Feoktistov et al, 2001, transfected CHO cells, radioligand [3H]NECA, cited from earlier work
# Sequence of A2A adenosine receptor (Homo sapiens, UniProt P29274) (P29274 whole entry): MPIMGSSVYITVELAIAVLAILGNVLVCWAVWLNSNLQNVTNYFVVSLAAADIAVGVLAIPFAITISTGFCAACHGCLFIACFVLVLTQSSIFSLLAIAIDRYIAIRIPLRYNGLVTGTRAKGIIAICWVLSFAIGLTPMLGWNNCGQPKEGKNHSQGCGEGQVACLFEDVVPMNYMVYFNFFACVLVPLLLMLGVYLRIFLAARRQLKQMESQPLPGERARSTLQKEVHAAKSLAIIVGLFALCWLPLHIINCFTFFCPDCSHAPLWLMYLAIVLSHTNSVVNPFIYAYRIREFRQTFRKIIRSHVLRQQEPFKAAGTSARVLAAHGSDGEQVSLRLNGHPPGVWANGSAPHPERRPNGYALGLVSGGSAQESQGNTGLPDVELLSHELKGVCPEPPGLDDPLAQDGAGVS
# A1 adenosine receptor [10] = target: T6, A1 adenosine receptor (Homo sapiens, UniProt P30542); conditions: [14] Feoktistov et al, 2001, transfected CHO cells, radioligand [3H]DPCPX, cited from earlier work
# T6 sequence (P30542 1-326): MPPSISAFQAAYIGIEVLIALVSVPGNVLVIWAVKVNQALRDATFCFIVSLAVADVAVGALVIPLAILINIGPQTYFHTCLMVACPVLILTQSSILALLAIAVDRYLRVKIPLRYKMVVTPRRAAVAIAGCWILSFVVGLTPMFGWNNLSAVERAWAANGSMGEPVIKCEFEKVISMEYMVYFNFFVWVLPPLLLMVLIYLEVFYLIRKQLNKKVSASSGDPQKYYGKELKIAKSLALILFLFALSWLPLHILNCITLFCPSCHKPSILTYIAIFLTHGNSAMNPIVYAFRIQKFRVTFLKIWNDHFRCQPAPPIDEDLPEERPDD
# [11] = [6] Maemoto et al. (1997), brain cortex, radioligand [3H]DPCPX
# [12] = [9] Kreckler et al. (2006), transfected HEK 293, radioligand [125I]I-AB-MECA
compound,measurement,setting,value
"CCNC(=O)[C@H]1O[C@@H](n2cnc3c(N)nc(NCCc4ccc(CCC(=O)O)cc4)nc32)[C@H](O)[C@@H]1O [CGS21680, 4-((N-ethyl-5′-carbamoyladenos-2-yl)-aminoethyl)-phenyl-propionic acid]",Effect on eEPC adhesion,[1]; 30 minutes,virtually no effect
same,Effect on cAMP accumulation in HMVEC-c,HMVEC-c cells,no significant effect
same,"Affinity or potency at A1, mouse (m), log",A1 adenosine receptor [2]; [11],"28,200); −4.85 [6] log mol/L"
same,Effect on eEPC retention,"[3]; 3 nmol/L, compared with 10 μmol/L adenosine",considerably less effect
"OC[C@H]1O[C@@H](n2cnc3c(NC4CCCC4)ncnc32)[C@H](O)[C@@H]1O [CPA, N^6-cyclopentyladenosine]",eEPC adhesion,"[1]; 10 nmol/L, 30 minutes, basal 4.5±0.3%",7.4±0.6%
same,EC50,A1 receptors [4],1.3 nM
same,"Affinity or potency at A1, mouse (m), current study, log",A1 receptors [4],−8.9 log mol/L
same,"Affinity or potency (Ki, KD, KB, IC50 or EC50) at A1, mouse (m), current study",A1 receptors [4],1.2 (0.6-2.4) nmol/L
same,"Affinity or potency at A1, mouse (m), log",A1 adenosine receptor [2]; [11],−8.5 log mol/L
same,Ki,A1 adenosine receptor [2]; [11],3.3 nM
same,Concentrations at which inhibition was reversed,"A1 receptors [5]; MCEC-1, presumably stimulation of A2B receptors",> 100 nmol/L
same,Effect on forskolin-stimulated adenylate cyclase in MCEC-1,"A1 receptors [5]; selective (low nanomolar) concentrations, 1 μmol/L forskolin",inhibited forskolin-stimulated adenylate cyclase
"CCCn1c(=O)c2[nH]c(C3CCCC3)nc2n(CCC)c1=O [DPCPX, 8-cyclopentyl-1,3-dipropylxanthine]","Affinity or potency at A2A, mouse (m), log",A2A adenosine receptor [6],−6.2 log mol/L
same,Ki,"A2A adenosine receptor [6]; read-out: Affinity or potency at A2A, mouse (m)",598 nM
same,EC50,A1 receptors [4],1.5 nM
same,"Affinity or potency at A1, mouse (m), current study, log",A1 receptors [4],−8.8 log mol/L
same,"Affinity or potency at A2B, mouse (m), log",A2B adenosine receptor [7],−7.1 log mol/L
same,Ki,"A2B adenosine receptor [7]; read-out: Affinity or potency at A2B, mouse (m)",86 nM
same,"Affinity or potency at A1, mouse (m), log",A1 adenosine receptor [2]; [11],−9.3 log mol/L
same,"Affinity or potency at A1, mouse (m), log",A1 adenosine receptor [2]; [12],−8.8 log mol/L
same,Ki,A1 adenosine receptor [2]; [11],0.4 nM
same,Ki,A1 adenosine receptor [2]; [12],1.5 nM
"C=C[C@@]1(C)CC(=O)[C@]2(O)[C@@]3(C)[C@@H](O)CCC(C)(C)[C@@H]3[C@H](O)[C@H](OC(C)=O)[C@@]2(C)O1 [Forskolin, forskolin]",EC50,"eEPCs; Mus musculus, read-out: EC50, increase of cAMP levels in eEPCs",1100 nM
same,cAMP levels in eEPCs,eEPCs; maximal increase from basal 4.3±0.7,35±2 pmol per well
"CC(C)Cn1c(=O)[nH]c(=O)c2[nH]c(N3CCCC3)nc21 [IPDX, 3-isobutyl-8-pyrrolidinoxanthine]",Kd,A2B receptors,603 nM
same,Schild analysis slope,"A2B receptors; NECA-induced cAMP accumulation in MCEC-1, simple competitive antagonism at A2B",1.1
same,"Affinity or potency at A2B, mouse (m), current study, log",A2B receptors; data from the current study (no reference),−6.2 log mol/L
same,"Affinity or potency (Ki, KD, KB, IC50 or EC50) at A2B, mouse (m), current study","A2B receptors; data from the current study (no reference), 95% CI in parentheses",603 nM
same,"Affinity or potency at A2B, human (h), log",A2B adenosine receptor [8],−6.2 log mol/L
same,Ki,"A2B adenosine receptor [8]; read-out: Affinity or potency at A2B, human (h)",625 nM
same,IC50,"[1]; Mus musculus, read-out: IC50, inhibition of NECA-induced eEPC adhesion",1600 nM
same,"Affinity or potency at A1, mouse (m), current study, log",A1 receptors [4],"24,870); −4.6 log mol/L"
same,"Affinity or potency (Ki, KD, KB, IC50 or EC50) at A1, mouse (m), current study",A1 receptors [4],"m 20,000 (16,230- nmol/L"
same,"Affinity or potency at A2A, human (h), log",A2A adenosine receptor [9],−4.4 log mol/L
same,Ki,"A2A adenosine receptor [9]; read-out: Affinity or potency at A2A, human (h)",36000 nM
same,"Affinity or potency at A1, human (h), log",A1 adenosine receptor [10],−4.6 log mol/L
same,Ki,"A1 adenosine receptor [10]; read-out: Affinity or potency at A1, human (h)",24000 nM
OC[C@H]1O[C@@H](n2cnc3c(O)ncnc32)[C@H](O)[C@@H]1O [inosine],Effect on eEPC retention,[3]; 100 μmol/L,no effect
Fucoidan,Effect on NECA-dependent stimulation of eEPC adhesion,[1]; 10 μmol/L NECA,inhibited
Pertussis toxin,Effect on TNF-α-induced eEPC adhesion,[1]; eEPCs preincubated with pertussis toxin 12 hours,no effect
same,Effect on stimulation of adhesion induced by NECA,"[1]; eEPCs preincubated with pertussis toxin 12 hours, 10 μmol/L NECA",significantly attenuated but did not completely block
same,Effect on ability of CPA to inhibit forskolin-stimulated adenylate cyclase,A1 receptors [4]; eEPCs preincubated with pertussis toxin for 12 hours,completely abrogated
